# Literature values, collected in patent publication US20140128469A1, “[…]-BUTYL BUMETANIDE” (CONCERT PHARMACEUTICALS INC., priority 2011, published 2014).
# What was measured:
# [1] = molecular target: T1, Na+K+2Cl— co-transporter (NKCC2) (Homo sapiens, UniProt Q13621)
# T1 sequence (Q13621 1-1099): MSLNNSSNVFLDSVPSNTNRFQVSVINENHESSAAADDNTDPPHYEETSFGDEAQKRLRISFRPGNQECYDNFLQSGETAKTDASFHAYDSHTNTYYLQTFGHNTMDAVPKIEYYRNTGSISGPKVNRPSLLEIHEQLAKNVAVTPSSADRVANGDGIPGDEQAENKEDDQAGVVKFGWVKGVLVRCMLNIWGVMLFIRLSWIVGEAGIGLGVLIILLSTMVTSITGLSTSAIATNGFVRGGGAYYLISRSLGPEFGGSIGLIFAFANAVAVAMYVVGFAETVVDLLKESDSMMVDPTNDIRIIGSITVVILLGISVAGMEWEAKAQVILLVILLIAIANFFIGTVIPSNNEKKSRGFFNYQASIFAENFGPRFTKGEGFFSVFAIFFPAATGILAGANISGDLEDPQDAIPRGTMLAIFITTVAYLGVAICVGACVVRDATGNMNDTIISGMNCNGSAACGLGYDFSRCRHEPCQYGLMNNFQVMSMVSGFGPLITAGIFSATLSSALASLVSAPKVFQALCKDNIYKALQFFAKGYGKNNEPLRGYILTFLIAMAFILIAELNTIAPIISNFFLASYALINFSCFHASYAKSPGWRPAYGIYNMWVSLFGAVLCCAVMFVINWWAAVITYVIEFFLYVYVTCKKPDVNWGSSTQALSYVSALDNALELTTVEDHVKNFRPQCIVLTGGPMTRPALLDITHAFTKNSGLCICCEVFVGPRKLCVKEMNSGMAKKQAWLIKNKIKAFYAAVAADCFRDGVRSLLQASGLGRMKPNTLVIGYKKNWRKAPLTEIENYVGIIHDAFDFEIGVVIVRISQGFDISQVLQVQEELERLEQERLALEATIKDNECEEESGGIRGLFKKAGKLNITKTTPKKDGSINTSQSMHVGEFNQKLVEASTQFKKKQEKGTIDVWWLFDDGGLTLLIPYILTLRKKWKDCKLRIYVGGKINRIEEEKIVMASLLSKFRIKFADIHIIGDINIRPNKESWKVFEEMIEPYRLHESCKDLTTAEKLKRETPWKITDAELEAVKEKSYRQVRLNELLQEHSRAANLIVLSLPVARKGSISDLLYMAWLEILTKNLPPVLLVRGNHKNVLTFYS
# [2] = test system: models of neuropathic and nociceptive pain; conditions: in vivo
# [3] = preclinical models
# [4] = molecular target: T2, Na+K+2Cl— co-transporter (NKCC1) (Homo sapiens, UniProt P55011)
# T2 sequence (P55011 1-1212): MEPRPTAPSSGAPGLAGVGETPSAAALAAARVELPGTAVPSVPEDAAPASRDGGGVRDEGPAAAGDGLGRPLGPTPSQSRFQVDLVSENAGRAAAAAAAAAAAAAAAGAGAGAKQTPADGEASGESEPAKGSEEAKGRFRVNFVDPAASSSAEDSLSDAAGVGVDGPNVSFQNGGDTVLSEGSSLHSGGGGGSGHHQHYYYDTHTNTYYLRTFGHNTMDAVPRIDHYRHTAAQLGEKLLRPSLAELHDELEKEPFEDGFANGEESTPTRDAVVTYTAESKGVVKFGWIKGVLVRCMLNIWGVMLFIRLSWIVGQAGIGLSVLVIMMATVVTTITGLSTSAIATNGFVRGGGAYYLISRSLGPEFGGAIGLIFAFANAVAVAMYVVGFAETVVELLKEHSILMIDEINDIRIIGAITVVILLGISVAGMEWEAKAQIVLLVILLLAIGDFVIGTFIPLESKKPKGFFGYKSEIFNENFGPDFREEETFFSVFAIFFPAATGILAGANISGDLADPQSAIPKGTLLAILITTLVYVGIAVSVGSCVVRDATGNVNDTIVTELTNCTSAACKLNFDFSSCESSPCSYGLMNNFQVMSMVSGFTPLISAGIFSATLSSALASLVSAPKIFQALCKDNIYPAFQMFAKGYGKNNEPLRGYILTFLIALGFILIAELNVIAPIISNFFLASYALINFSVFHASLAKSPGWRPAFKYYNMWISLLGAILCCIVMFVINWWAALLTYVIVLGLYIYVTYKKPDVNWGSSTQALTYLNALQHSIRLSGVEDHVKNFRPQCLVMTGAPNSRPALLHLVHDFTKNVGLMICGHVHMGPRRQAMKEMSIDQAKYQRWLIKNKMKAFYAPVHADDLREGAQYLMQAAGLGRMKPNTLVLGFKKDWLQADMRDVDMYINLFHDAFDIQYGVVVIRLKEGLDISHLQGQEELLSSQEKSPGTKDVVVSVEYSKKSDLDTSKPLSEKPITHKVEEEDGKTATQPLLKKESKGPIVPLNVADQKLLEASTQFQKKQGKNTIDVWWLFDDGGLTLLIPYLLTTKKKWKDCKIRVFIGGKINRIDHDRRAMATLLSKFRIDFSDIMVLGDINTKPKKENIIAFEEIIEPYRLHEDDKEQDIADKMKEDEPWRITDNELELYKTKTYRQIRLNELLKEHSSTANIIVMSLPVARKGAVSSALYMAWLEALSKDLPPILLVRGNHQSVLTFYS
# models of migraine = conditions: in vivo
# [5] = preclinical toxicology studies, see WO 2010/085352
structure (smiles),measurement,setting,value
CCCCN(CCCC)c1cc(C(=O)O)cc(S(N)(=O)=O)c1Oc1ccccc1 [N-butyl bumetanide],action on NKCC2,[1],does not act on
same,GABAA modulation,GABAA,subtype-selective GABAA modulatory actions
same,efficacy in models of neuropathic and nociceptive pain,[2],effective
same,diuresis,[3],does not cause diuresis
same,action on NKCC1,[4],does not act on
same,amelioration of seizures,models of epilepsy; epilepsy models resistant to currently-marketed anti-epileptic drugs,effective in ameliorating seizures
same,efficacy in models of epilepsy,models of epilepsy; in vivo,effective
same,efficacy in models of migraine,models of migraine,effective
same,therapeutic safety margin,[5],large therapeutic safety margin
